Data published in PubChem BioAssay AID342 (DTP/NCI, 2004).
Values joined by “and” are separate entries in the source; they are usually repeats but may differ in a detail not shown here. Equal entries are not always repeated.

System: Swiss mice, Sarcoma 180 sc, mean tumor weight T/C
Assay: NCI In Vivo Anticancer Drug Screen. Data for tumor model Sarcoma 180 (subcutaneous) in Swiss mice
Details: endpoint: mean tumor weight, higher = larger tumour
Procedure, shortened: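 Transplantable tumors were established in mice, compound was given, then survival or tumor size was recorded. The treated value was divided by the vehicle-control value.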

[1] = dose: 50.0 mg/kg/injection, schedule: Q01DX007 (ip), vehicle: saline
[2] = dose: 25.0 mg/kg/injection, schedule: Q01DX007 (ip), vehicle: saline
[3] = dose: 100.0 mg/kg/injection, schedule: Q01DX007 (ip), vehicle: saline
[4] = dose: 166.0 mg/kg/injection, schedule: Q01DX007 (ip), vehicle: other

C=CCOc1ccc2c(c1)CC[C@@H]1[C@@H]2CC[C@@]2(C)[C@H]1CC[C@]2(C)O
T/C (dose: 0.5 mg/kg/injection, schedule: Q#A X014 (sc), vehicle: steriod suspending solution): 80 % of control | T/C (dose: 5.0 mg/kg/injection, schedule: Q#A X014 (sc), vehicle: steriod suspending solution): 116 % of control | T/C (dose: 50.0 mg/kg/injection, schedule: Q#A X014 (sc), vehicle: steriod suspending solution): 71 % of control

NC(=O)c1n[se]nc1N
T/C (dose: 1.0 mg/kg/injection, schedule: Q01DX007 (ip), vehicle: carboxymethylcellulose (CMC)): 65 % of control | T/C (dose: 2.0 mg/kg/injection, schedule: Q01DX007 (ip), vehicle: carboxymethylcellulose (CMC)): 99 % of control

COc1cc([C@@H]2c3cc4c(cc3[C@H](O)[C@H]3COC(=O)[C@H]23)OCO4)cc(OC)c1OC
T/C (dose: 0.45 mg/kg/injection, schedule: Q01DX007 (ip), vehicle: carboxymethylcellulose (CMC)): 90 % of control | T/C (dose: 0.9 mg/kg/injection, schedule: Q01DX007 (ip), vehicle: carboxymethylcellulose (CMC)): 92 % of control | T/C (dose: 175.0 micrograms/kg/injection, schedule: Q01DX007 (ip), vehicle: carboxymethylcellulose (CMC)): 88 % of control | T/C (dose: 350.0 micrograms/kg/injection, schedule: Q01DX007 (ip), vehicle: carboxymethylcellulose (CMC)): 77 % of control | T/C (dose: 1400.0 micrograms/kg/injection, schedule: Q01DX007 (ip), vehicle: carboxymethylcellulose (CMC)): 71 % of control

CCCCCN(C)/N=N/c1nc[nH]c1C(N)=O
T/C (dose: 50.0 mg/kg/injection, schedule: Q01DX007 (ip), vehicle: carboxymethylcellulose (CMC)): 41 % of control and 51 % of control | T/C (dose: 75.0 mg/kg/injection, schedule: Q01DX007 (ip), vehicle: carboxymethylcellulose (CMC)): 23 % of control and 36 % of control | T/C (dose: 100.0 mg/kg/injection, schedule: Q01DX007 (ip), vehicle: carboxymethylcellulose (CMC)): 24 % of control

CO[C@H]1C(=O)C[C@H]2[C@@H]3CC=C4C[C@@H](O)CC[C@]4(C)[C@H]3CC[C@]12C
T/C (dose: 2.5 mg/kg/injection, schedule: Q01DX007 (sc), vehicle: steriod suspending solution): 92 % of control | T/C (dose: 5.0 mg/kg/injection, schedule: Q01DX007 (sc), vehicle: steriod suspending solution): 101 % of control | T/C (dose: 10.0 mg/kg/injection, schedule: Q01DX007 (sc), vehicle: steriod suspending solution): 89 % of control | T/C (dose: 20.0 mg/kg/injection, schedule: Q01DX007 (sc), vehicle: steriod suspending solution): 94 % of control | T/C (dose: 40.0 mg/kg/injection, schedule: Q01DX007 (sc), vehicle: steriod suspending solution): 93 % of control and 107 % of control | T/C (dose: 80.0 mg/kg/injection, schedule: Q01DX007 (sc), vehicle: steriod suspending solution): 116 % of control and 117 % of control

O=c1[nH]c(Cl)ncc1F
T/C (dose: 22.0 mg/kg/injection, schedule: Q01DX007 (ip), vehicle: saline): 36 % of control | T/C (dose: 33.0 mg/kg/injection, schedule: Q01DX007 (ip), vehicle: saline): 46 % of control | T/C [1]: 29 % of control | T/C (dose: 75.0 mg/kg/injection, schedule: Q01DX007 (ip), vehicle: saline): 5 % of control

Nc1ncnc2[nH]ncc12
T/C (dose: 0.55 mg/kg/injection, schedule: Q#A X014 (ip), vehicle: carboxymethylcellulose (CMC)): 74 % of control | T/C (dose: 1.1 mg/kg/injection, schedule: Q#A X014 (ip), vehicle: carboxymethylcellulose (CMC)): 79 % of control | T/C (dose: 2.2 mg/kg/injection, schedule: Q#A X014 (ip), vehicle: carboxymethylcellulose (CMC)): 76 % of control | T/C (dose: 4.4 mg/kg/injection, schedule: Q#A X014 (ip), vehicle: carboxymethylcellulose (CMC)): 87 % of control

CC(O)C(NCNC(=O)C1=C(O)C2(O)C(=O)C3=C(O)c4c(O)cccc4C(C)(O)C3CC2C(N(C)C)C1=O)C(=O)O (centres undefined)
T/C (dose: 250.0 mg/kg/injection, schedule: Q#A X014 (ip), vehicle: saline): 44 % of control and 46 % of control

OC(CBr)C(O)C(O)C(O)CBr (centres undefined)
T/C [2]: 106 % of control | T/C [1]: 95 % of control and 117 % of control | T/C [3]: 104 % of control and 107 % of control | T/C (dose: 400.0 mg/kg/injection, schedule: Q01DX007 (ip), vehicle: saline): 88 % of control

CC(C)C(=O)OCC1OC(n2cnc3c(=S)nc[nH]c32)C(OC(=O)C(C)C)C1OC(=O)C(C)C (centres undefined)
T/C (dose: 17.0 mg/kg/injection, schedule: Q01DX007 (ip), vehicle: steriod suspending solution): 80 % of control | T/C (dose: 24.0 mg/kg/injection, schedule: Q01DX007 (ip), vehicle: carboxymethylcellulose (CMC)): 76 % of control | T/C (dose: 25.0 mg/kg/injection, schedule: Q01DX007 (ip), vehicle: steriod suspending solution): 61 % of control | T/C (dose: 37.0 mg/kg/injection, schedule: Q01DX007 (ip), vehicle: carboxymethylcellulose (CMC)): 38 % of control | T/C (dose: 37.0 mg/kg/injection, schedule: Q01DX007 (ip), vehicle: steriod suspending solution): 66 % of control | T/C (dose: 55.0 mg/kg/injection, schedule: Q01DX007 (ip), vehicle: carboxymethylcellulose (CMC)): 31 % of control and 47 % of control | T/C (dose: 55.0 mg/kg/injection, schedule: Q01DX007 (ip), vehicle: steriod suspending solution): 27 % of control and 37 % of control | T/C (dose: 84.0 mg/kg/injection, schedule: Q01DX007 (ip), vehicle: carboxymethylcellulose (CMC)): 25 % of control and 31 % of control | T/C (dose: 84.0 mg/kg/injection, schedule: Q01DX007 (ip), vehicle: steriod suspending solution): 52 % of control | T/C (dose: 125.0 mg/kg/injection, schedule: Q01DX007 (ip), vehicle: carboxymethylcellulose (CMC)): 8 % of control | T/C (dose: 125.0 mg/kg/injection, schedule: Q01DX007 (ip), vehicle: steriod suspending solution): 26 % of control | T/C (dose: 188.0 mg/kg/injection, schedule: Q01DX007 (ip), vehicle: steriod suspending solution): 14 % of control and 17 % of control | T/C (dose: 282.0 mg/kg/injection, schedule: Q01DX007 (ip), vehicle: steriod suspending solution): 16 % of control | T/C (dose: 423.0 mg/kg/injection, schedule: Q01DX007 (ip), vehicle: steriod suspending solution): 16 % of control

CN(C)c1ccc2c(c1)Cc1cc(N=C3C=CC(=O)O3)ccc1-2
T/C (dose: 48.0 mg/kg/injection, schedule: Q01DX007 (ip), vehicle: other): 83 % of control | T/C (dose: 73.0 mg/kg/injection, schedule: Q01DX007 (ip), vehicle: other): 101 % of control | T/C [4]: 40 % of control and 65 % of control

NC1C(O)C(O)C(Nc2ncnc3nc[nH]c23)OC1C(O)CO (centres undefined)
T/C (dose: 0.44 mg/kg/injection, schedule: Q## X000 (ip), vehicle: carboxymethylcellulose (CMC)): 100 % of control | T/C (dose: 0.66 mg/kg/injection, schedule: Q## X000 (ip), vehicle: carboxymethylcellulose (CMC)): 66 % of control | T/C (dose: 1.0 mg/kg/injection, schedule: Q## X000 (ip), vehicle: carboxymethylcellulose (CMC)): 82 % of control | T/C (dose: 1.5 mg/kg/injection, schedule: Q## X000 (ip), vehicle: carboxymethylcellulose (CMC)): 72 % of control

C/C=C1\CN(C)[C@H]2Cc3c([nH]c4ccccc34)[C@@H](c3cc4[nH]c5c(c4cc3OC)CCN3C[C@H]4C[C@H](CC)[C@H]3[C@@]5(C(=O)OC)C4)C[C@H]1C2C(=O)OC (some centres undefined)
T/C (dose: 35.0 mg/kg/injection, schedule: Q01DX007 (ip), vehicle: water): 58 % of control | T/C (dose: 50.0 mg/kg/injection, schedule: Q01DX007 (ip), vehicle: water): 74 % of control and 90 % of control | T/C (dose: 70.0 mg/kg/injection, schedule: Q01DX007 (ip), vehicle: water): 38 % of control and 59 % of control | T/C (dose: 90.0 mg/kg/injection, schedule: Q01DX007 (ip), vehicle: water): 30 % of control

C=CCSc1ncnc2c1ncn2C1OC(CO)C(O)C1O (centres undefined)
T/C [2]: 80 % of control and 83 % of control | T/C [3]: 35 % of control and 52 % of control | T/C (dose: 200.0 mg/kg/injection, schedule: Q01DX007 (ip), vehicle: saline): 34 % of control and 49 % of control

CC(C)Sc1nc(N)nc2c1ncn2C1OC(CO)C(O)C1O (centres undefined)
T/C (dose: 1.35 mg/kg/injection, schedule: Q#A X014 (ip), vehicle: methylcellulose (MC)): 69 % of control | T/C (dose: 2.05 mg/kg/injection, schedule: Q#A X014 (ip), vehicle: methylcellulose (MC)): 95 % of control | T/C (dose: 3.12 mg/kg/injection, schedule: Q#A X014 (ip), vehicle: methylcellulose (MC)): 53 % of control | T/C (dose: 4.65 mg/kg/injection, schedule: Q#A X014 (ip), vehicle: methylcellulose (MC)): 86 % of control

N#Cc1ccc(S(N)(=O)=O)cc1
T/C (dose: 30.0 mg/kg/injection, schedule: Q01DX007 (ip), vehicle: alkali diluted with saline): 76 % of control | T/C (dose: 33.0 mg/kg/injection, schedule: Q01DX007 (ip), vehicle: other): 70 % of control | T/C (dose: 44.0 mg/kg/injection, schedule: Q01DX007 (ip), vehicle: alkali diluted with saline): 71 % of control | T/C (dose: 49.0 mg/kg/injection, schedule: Q01DX007 (ip), vehicle: other): 68 % of control | T/C (dose: 66.0 mg/kg/injection, schedule: Q01DX007 (ip), vehicle: alkali diluted with saline): 54 % of control | T/C (dose: 74.0 mg/kg/injection, schedule: Q01DX007 (ip), vehicle: other): 59 % of control | T/C (dose: 100.0 mg/kg/injection, schedule: Q01DX007 (ip), vehicle: alkali diluted with saline): 39 % of control | T/C (dose: 111.0 mg/kg/injection, schedule: Q01DX007 (ip), vehicle: other): 45 % of control and 60 % of control | T/C [4]: 34 % of control | T/C (dose: 250.0 mg/kg/injection, schedule: Q01DX007 (ip), vehicle: other): 13 % of control
